The record followed here is EP0585371B1, “AROMATIC OLIGOMERIC COMPOUNDS USEFUL AS MIMICS OF BIOACTIVE MACROMOLECULES” (RHONE-POULENC RORER INTERNATIONAL (HOLDINGS) INC., priority 1991, dated 1992).

The target in test [1] is T1, Human neutrophil elastase (Homo sapiens, UniProt P08246).
T1 construct: purchased ICN Biochemical
T1 sequence (P08246 30-267): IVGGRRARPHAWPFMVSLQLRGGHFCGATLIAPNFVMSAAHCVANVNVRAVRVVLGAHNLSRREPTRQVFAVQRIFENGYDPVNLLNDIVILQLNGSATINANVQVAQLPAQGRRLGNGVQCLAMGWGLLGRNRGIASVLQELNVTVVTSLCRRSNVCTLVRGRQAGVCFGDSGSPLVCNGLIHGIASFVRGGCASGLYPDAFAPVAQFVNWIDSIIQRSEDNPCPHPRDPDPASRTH
The experiment in a line: Human Granulocyte Elastase Inhibition Assay. Format: biochemical. The settings on record: substrate S-2484, pH 8.3; for IC50: read-out: IC50 (converted). How it is done: The Human Granulocyte Elastase Inhibition assay is a standard test procedure and is essentially that of Kramps, et al., "L-Pyroglutamyl-L-prolyl-L-valine-p-nitroanilide, a highly specific substrate for granulocyte elastase", Scand. J. clin. Lab. Invest. 43, 427-432 (1983).
A stock solution of 8.0 mM L-pyroglutamyl-L-prolyl-L-valine-p-nitroanilide (S-2484, obtained from Kabi) in dimethylsulfoxide is diluted to 2.0 mM in 0.03 M Tris buffer, pH 8.3, to give the working substrate solution. Human neutrophil elastase (obtained from ICN Biochemical) is diluted in the same buffer to 1 unit/ml to give the working enzyme solution.
A control assay is run in which a solution of 10 µl of buffer and 10µl of working enzyme solution is incubated at room temperature for 1 minute and 330 µl of buffer and 50 µl of working substrate solution is then added. The increase in absorbance (ΔOD/min) at 405 nm is measured.
In the experimental assay 10µl of a solution containing a compound of the present invention (in concentrations ranging from 1 mg/ml to 0.1 µg/ml), or other inhibitor to be tested, in buffer is substituted for the 10 µl of buffer with which the enzyme is incubated in the control assay and the procedure followed as for the control assay above. The ΔOD/min is measured and the result expressed as percentage inhibition for the given concentration of inhibitor as compared with the ΔOD/min for the control. Percent inhibition versus concentration of compound of the present invention or other inhibitor is plotted and the data extrapolated to give the concentration required for 50% inhibition of the enzyme (IC50).

The next test concerns the target T2, vWF Binding to Gp1b (Homo sapiens, UniProt P04275+P07359).
T2 construct: multimeric vWF (isolated from human plasma cryoprecipitate); Formalin-fixed platelets, prepared according to the method of MacFarlane; from tissue; host or cells: vWF from human plasma cryoprecipitate; GPIb on formalin-fixed platelets
Kind of test: Inhibition of ristocetin-induced binding of 125I-vWF to formalin-fixed platelets. The settings on record: at 100 µg/ml; ristocetin 1.0 mg/ml. How it is done: The binding of vWf (vonWillebrand Factor) to glycoprotein Ib is measured in one of two experimental systems, in the presence of either ristocetin or botrocetin as modulators of binding. The ristocetin modulated binding is described herein.
Formalin-fixed platelets, prepared according to the method of MacFarlane, D. et al., Thromb. Diath. Haemorrh. 34, 306-308 (1975), were preincubated at room temperature for 15 minutes with specified dilutions of oligomers according to the present invention. Ristocetin, (Sigma, St. Louis, MO) diluted to a final concentration of 1.0 mg/ml, and ^125I-labelled multimeric vWF (isolated from human plasma cryoprecipitate according to the method of Fulcher, C.A. et al. Proc. Natl. Acad. Sci. USA, 79, 1648-1652 (1982), and labelled according to the method of Fraker, P.J. et al. Biochem. Biophys. Res. Commun., 80, 849-857 (1978)) were then added to the incubation mixture, and the amount of ^125I- vWF bound to the platelets was determined. ^125I-vWF binding to the platelets was referenced against 100% binding which was defined as the amount of ^125I- vWF bound in the absence of added oligomer compound. The method for measuring vWF binding is reported in detail in Ruggeri et al., J. Clin. Invest., 72, 1-12, (1983), herein incorporated by reference.

A further test concerns normal pooled plasma. The experiment in a line: Anticoagulation activity, Activated Partial Thromboplastin Time (APTT) test. To be noted: concentration required to double clotting time. How it is done: The following test measures anticoagulant activity of the oligomers of the present invention and utilizes the Activated Partial Thromboplastin Time (APTT) test, with the following procedures.
To an assay cuvette is added 100 µl of normal pooled plasma (George King Biomedical Inc., Kansas) and […] of a solution containing the test compound in aqueous 50 mM Tris hydrochloride at pH 7.5 (0.2 mg of sample in one ml buffer). The sample is placed in a MLA coagulation timer which automatically maintains the sample at 37°C for 2.5 minutes, 100 µl of actin activated cephaloplastin reagent is injected, kept 5 minutes, 100 µl of 35 mM CaCI is injected, and clot formation is determined photometrically and the clotting time recorded. Each example is examined at a variety of concentrations, generally from about .025 mg/ml to about 1 mg/ml, and the clotting times are graphed as a function of concentration. From the graphic results, the concentration required to double clotting time (ICDCT) is calculated by linear interpolation.

Test [2] concerns Vascular smooth muscle cells (VSMC). The experiment in a line: Smooth Muscle Cell DNA Synthesis Assay (3H-thymidine incorporation in response to PDGF). Format: cell-based, swine. To be noted: inhibition of incorporation of 3H-thymidine in response to PDGF (9 ng/ml). On the procedure: Vascular smooth muscle cells (VSMC) are isolated from swine coronaries obtained from swine hearts (Hatfield Meat Packing, Hatfield, PA) by enzyme dissociation as described by Gunther, et al., in J. Cell. Biol. 92, 289 (1982). Hyaluronidase (0.5 mg/ml) is added to facilitate dispersal. Cells are maintained in Earle's modified minimal essential medium (EMEM) with D-valine substituted for L-valine, supplemented with Hepes (10 mM), fetal bovine serum (FBS) (10%), penicillin (100 U/ml) and streptomycin ( 100 µg/ml).
The VSMC (passage 2) are plated at a density of 3 x 10^4 /cm2 (1x10^4 cells/well of 96 well tray) and after 48 hours of normal growth are arrested by replacement of above media with serum-free media for 48 hours consisting of: EMEM: Hams F12 (1:1), insulin, 5 µg/ml; transferrin, 35 µg/ml; selenite, 5 ng/ml; antibiotics and buffer (as above). The oligomer of the present invention to be tested (.01-10 µM) is added 2 hours prior to addition of porcine platelet derived growth factor (Research and Diagonostics, Minneapolis, MN), or FBS,in fresh serum-free media. Twenty-four hours later the oligomers are again added preceding addition of growth factors by 2 hours. […]
The VSMC are pulsed (5 hours) with ^3H-thymidine (Amersham, Arlington Heights, IL) (1 µCi/well of a 96 well plate; 42 Ci/mmole) added 15-18 hours after the last dose of growth factor. DNA synthesis is determined in NaOH extraction of ethanol/ether fixed cells as reported by Nemecek, et al., PNAS 83, 674 (1986). The cells are washed with phosphate bufferred saline (200 µl/well of 96-well tray. The cells are incubated with trichloroacetic acid (TCA) (10%, 200 ul) for 5 minutes to remove cytoplasmic label. After a rapid wash with cold 10% TCA, cells are fixed with ethanol/ether (2:1, 200 µl/well 5 min) and dried. The labeled DNA is extracted with 0.5 N NaOH (200 µl/well 30 min incubation, room temperature). The extracted DNA is neutralized (0.5 N HCI) and counted by liquid scintillation.
Statistical evaluation is as reported by Bilder, et al., Am. […] IC50 values are calculated by linear regression (RPL of RS1) from % inhibition of a minimum of 3 log fold dilutions of oligomers in the presence of PDGF (9 ng/ml) which give 70-80% of a maximal PDGF response. […] Percent inhibition is calculated by comparing the effect of PDGF alone (vehicle treated cultures + PDGF minus vehicle treated cultures without PDGF) to the effect of oligomers (oligomer + PDGF minus oligomer alone) and divided by the effect of PDGF times 100. i.e., = % inhibition = ((ΔVehicle + PDGF) - (Δoligomer + PDGF)/(Δvehicle + PDGF)) x 100.

pIC50: −log10 of the molar value. Several values for one entry are separate records, joined by “and”; a condition that tells them apart may be missing. Equal values may be shown once. Read-outs that look alike come from different tables or passages of the source.

T2 sequence (P04275 764-2813 limits assumed): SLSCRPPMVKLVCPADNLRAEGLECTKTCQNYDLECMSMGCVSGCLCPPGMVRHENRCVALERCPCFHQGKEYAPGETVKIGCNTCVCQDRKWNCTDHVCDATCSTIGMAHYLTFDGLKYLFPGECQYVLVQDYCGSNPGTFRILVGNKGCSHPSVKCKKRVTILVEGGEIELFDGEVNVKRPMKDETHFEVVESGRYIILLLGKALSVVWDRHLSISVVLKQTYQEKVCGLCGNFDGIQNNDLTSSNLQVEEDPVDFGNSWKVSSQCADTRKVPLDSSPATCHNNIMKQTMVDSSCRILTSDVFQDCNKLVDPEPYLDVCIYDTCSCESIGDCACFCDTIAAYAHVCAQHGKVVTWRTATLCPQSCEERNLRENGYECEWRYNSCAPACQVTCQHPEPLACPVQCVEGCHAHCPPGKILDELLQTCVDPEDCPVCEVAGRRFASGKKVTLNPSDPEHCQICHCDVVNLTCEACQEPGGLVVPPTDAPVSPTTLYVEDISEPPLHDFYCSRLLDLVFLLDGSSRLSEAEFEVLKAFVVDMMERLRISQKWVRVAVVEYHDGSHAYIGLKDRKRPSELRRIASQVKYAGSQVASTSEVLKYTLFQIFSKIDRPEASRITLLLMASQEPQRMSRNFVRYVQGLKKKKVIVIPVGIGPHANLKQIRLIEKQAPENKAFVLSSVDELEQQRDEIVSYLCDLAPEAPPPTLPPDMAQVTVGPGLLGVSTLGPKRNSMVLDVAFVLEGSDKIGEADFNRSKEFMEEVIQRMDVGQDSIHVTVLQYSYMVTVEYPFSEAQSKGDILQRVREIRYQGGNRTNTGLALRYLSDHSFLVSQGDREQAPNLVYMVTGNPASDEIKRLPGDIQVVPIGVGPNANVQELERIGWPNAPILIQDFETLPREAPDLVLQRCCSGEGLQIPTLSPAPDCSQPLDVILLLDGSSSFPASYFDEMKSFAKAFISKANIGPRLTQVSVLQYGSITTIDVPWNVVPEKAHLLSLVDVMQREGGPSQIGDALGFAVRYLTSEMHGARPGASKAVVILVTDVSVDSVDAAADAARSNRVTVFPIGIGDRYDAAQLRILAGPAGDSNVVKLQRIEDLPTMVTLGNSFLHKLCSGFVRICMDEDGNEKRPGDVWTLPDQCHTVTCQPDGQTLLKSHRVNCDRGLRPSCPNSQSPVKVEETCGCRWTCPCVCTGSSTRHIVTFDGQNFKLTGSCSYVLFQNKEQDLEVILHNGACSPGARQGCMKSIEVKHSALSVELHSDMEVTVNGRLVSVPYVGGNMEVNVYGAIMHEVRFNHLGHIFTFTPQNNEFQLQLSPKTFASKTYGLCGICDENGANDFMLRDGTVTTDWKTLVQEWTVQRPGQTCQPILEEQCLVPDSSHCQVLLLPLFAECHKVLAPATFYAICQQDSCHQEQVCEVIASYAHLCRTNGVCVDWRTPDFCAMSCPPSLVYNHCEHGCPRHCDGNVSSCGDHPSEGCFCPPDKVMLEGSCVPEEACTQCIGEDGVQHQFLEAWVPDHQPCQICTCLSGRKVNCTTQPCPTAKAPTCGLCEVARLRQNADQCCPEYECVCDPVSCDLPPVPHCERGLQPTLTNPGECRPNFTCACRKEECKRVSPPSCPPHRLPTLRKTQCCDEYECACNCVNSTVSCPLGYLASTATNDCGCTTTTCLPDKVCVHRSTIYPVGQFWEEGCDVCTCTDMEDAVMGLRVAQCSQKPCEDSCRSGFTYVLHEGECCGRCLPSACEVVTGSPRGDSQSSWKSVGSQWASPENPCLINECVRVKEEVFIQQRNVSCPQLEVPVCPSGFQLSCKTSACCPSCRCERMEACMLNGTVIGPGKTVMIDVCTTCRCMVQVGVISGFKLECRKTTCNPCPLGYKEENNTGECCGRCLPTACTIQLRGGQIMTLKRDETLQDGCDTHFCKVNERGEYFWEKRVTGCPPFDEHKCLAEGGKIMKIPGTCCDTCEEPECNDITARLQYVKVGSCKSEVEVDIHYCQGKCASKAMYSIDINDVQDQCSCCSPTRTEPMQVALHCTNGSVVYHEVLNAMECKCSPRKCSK
T2 sequence (P07359 17-652): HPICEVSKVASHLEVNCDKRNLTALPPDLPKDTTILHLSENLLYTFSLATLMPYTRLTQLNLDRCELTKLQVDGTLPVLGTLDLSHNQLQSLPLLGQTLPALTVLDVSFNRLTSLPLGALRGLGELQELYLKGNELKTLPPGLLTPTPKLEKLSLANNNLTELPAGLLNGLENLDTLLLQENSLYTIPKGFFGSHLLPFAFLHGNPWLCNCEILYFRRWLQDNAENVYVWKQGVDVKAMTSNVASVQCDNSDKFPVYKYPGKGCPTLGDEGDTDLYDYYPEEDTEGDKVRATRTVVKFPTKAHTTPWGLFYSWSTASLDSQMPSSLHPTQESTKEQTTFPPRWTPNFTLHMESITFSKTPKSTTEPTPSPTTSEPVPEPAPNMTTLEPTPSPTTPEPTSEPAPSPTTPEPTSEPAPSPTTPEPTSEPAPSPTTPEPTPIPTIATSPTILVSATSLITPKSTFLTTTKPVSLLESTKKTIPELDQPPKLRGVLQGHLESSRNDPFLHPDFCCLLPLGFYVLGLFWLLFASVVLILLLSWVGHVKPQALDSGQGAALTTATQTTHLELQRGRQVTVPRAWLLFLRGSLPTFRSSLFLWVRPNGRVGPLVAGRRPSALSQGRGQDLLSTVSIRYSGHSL

For the molecule `O=C(O)CCc1cc(Cc2cc(O)ccc2CCC(=O)O)c(O)cc1CCc1cc(O)c(Cc2cc(O)ccc2CCC(=O)O)cc1CCC(=O)O` [Ex 3, 1,2-bis-[2-(2-carboxyethyl)-4-[2-(2-carboxyethyl)-5-hydroxybenzyl]-5-hydroxyphenyl]ethane], the IC50 in test [1] was greater than 1400 nM. Besides, the inhibition at 100 µg/mL at vWF Binding to Gp1b was found to be 21%. Further, in the test on normal pooled plasma, the “APTT ICDCT” value turned out to be 700 µg/mL.
Take `O=C(O)COc1cc(Cc2cc(OCc3ccccc3)c(Cc3cc(OCc4ccccc4)c(Cc4cc(O)ccc4OCC(=O)O)cc3OCC(=O)O)cc2OCC(=O)O)c(OCc2ccccc2)cc1CO` [Ex 16, 4-benzyloxy-5-[4-[4-[[2-carboxymethyloxy-5-hydroxy]benzyl]-[5-benzyloxy-2-carboxymethyloxy]benzyl]-[5-benzyloxy-2-carboxymethyloxy]benzyl]-2-hydroxymethylphenoxyacetic acid]: the IC50 in test [1] is 330 nM and 327 nM. Also, in the test with normal pooled plasma, the “APTT ICDCT” value came out at 360 µg/mL.
Regarding `O=C(O)COc1cc(Cc2cc(O)ccc2OCC(=O)O)c(O)cc1CCc1cc(O)c(Cc2cc(O)ccc2OCC(=O)O)cc1OCC(=O)O` [Ex 17, 1 ,2-bis-[[2-carboxymethyloxy-5-hydroxy-4-(5-hydroxy-2-carboxymethyloxy)benzyl]phenyl]ethane], the concentration for half-maximal inhibition (IC50) in test [1] was 135 nM and 134 nM. The “APTT ICDCT” value in the test with normal pooled plasma turned out to be 580 µg/mL.
The molecule `O=C(O)COc1cc(Cc2cc(OCc3ccccc3)c(Cc3cc(OCc4ccccc4)c(Cc4cc(OCc5ccccc5)c(Cc5cc(OCc6ccccc6)c(Cc6cc(O)ccc6OCC(=O)O)cc5OCC(=O)O)cc4OCC(=O)O)cc3OCC(=O)O)cc2OCC(=O)O)c(OCc2ccccc2)cc1CO` [Ex 19, 4-benzyloxy-5-[4-[4-[4-[4-[[2-carboxymethyloxy-5-hydroxy]benzyl]-[5-benzyloxy-2-carboxymethyloxy]benzyl]-[5-benzyloxy-2-carboxymethyloxy]benzyl]-[5-benzyloxy-2-carboxymethyloxy]benzyl]-[5-benzyloxy-2-carboxymethyloxy]benzyl]-2-hydroxymethylphenoxyacetic acid] had a pIC50 in test [2] of 6.52. In the test on normal pooled plasma, the “APTT ICDCT” value came to 345 µg/mL.
Turning to `O=C(O)COc1cc(Cc2cc(OCc3ccccc3)ccc2OCC(=O)O)c(O)cc1CCc1cc(O)c(Cc2cc(OCc3ccccc3)ccc2OCC(=O)O)cc1OCC(=O)O` [Ex 20, 1,2-bis-[[2-carboxymethyloxy-5-hydroxy-4-(5-benzyloxy-2-carboxymethyloxy)benzyl]phenyl]ethane], the pIC50 in test [1] is 6.11. In addition, the “APTT ICDCT” value in the test on normal pooled plasma worked out at 555 µg/mL.
As to `CCc1cc(OCC(=O)O)cc(Cc2cc(OCC(=O)O)cc(Cc3cc(OCC(=O)O)cc(Cc4cc(OCC(=O)O)ccc4OC)c3OC)c2OC)c1OC` [Ex 22, 5-[3-[3-[[5-carboxymethyloxy-2-methoxy]benzyl]-[5-carboxymethyloxy-2-methoxy]benzyl]-[5-carboxymethyloxy-2-methoxy]benzyl]-3-ethyl-4-methoxyphenoxyacetic acid], the half-inhibitory concentration (IC50) in test [1] (unit printed in the cell of the nM column) is greater than 3e+06 nM. Also, the “APTT ICDCT” value with normal pooled plasma is greater than 315 µg/mL.
In test [2], `CCc1cc(OCC(=O)O)cc(Cc2cc(OCC(=O)O)cc(Cc3cc(OCC(=O)O)cc(Cc4cc(OCC(=O)O)cc(Cc5cc(OCC(=O)O)cc(Cc6cc(OCC(=O)O)cc(Cc7cc(OCC(=O)O)cc(Cc8cc(OCC(=O)O)ccc8OC)c7OC)c6OC)c5OC)c4OC)c3OC)c2OC)c1OC` [Ex 23, 5-[3-[3-[3-[3-[3-[3-[[5-carboxymethyloxy-2-methoxy]benzyl]-[5-carboxymethyloxy-2-methoxy]benzyl]-[5-carboxymethyloxy-2-methoxy]benzyl]-[5-carboxymethyloxy-2-methoxy]benzyl]-[5-carboxymethyloxy-2-methoxy]benzyl]-[5-carboxymethyloxy-2-methoxy]benzyl]-[5-carboxymethyloxy-2-methoxy]benzyl]-3-ethyl-4-methoxyphenoxyacetic acid] had a pIC50 of 6.52. In addition, the “APTT ICDCT” value in the test with normal pooled plasma is 300 µg/mL.

In general, IC50 refers to the concentration that inhibits the measured activity by half. Usually inhibition stands for the drop in the measured response relative to a control, in per cent. In general, pIC50 refers to the IC50 on a negative log10 scale, so that one unit is a factor of ten. High values mean a low IC50, low ones a high IC50.
